Results: PubChem BioAssay (NCI)
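Assay format: 96-well plates, 48-hour exposure. TGI marks complete inhibition of growth.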

Tests used:
Assay in all cases: NCI-60 cell line screen, 48 h
786-0 renal = tested on: 786-0 renal
A498 renal = tested on: A498 renal
A549 NSCLC = tested on: A549 NSCLC
ACHN renal = tested on: ACHN renal
BT-549 breast = tested on: BT-549 breast
CAKI-1 renal = tested on: CAKI-1 renal
CCRF-CEM leukemia = tested on: CCRF-CEM leukemia
COLO 205 colon = tested on: COLO 205 colon
DU-145 prostate = tested on: DU-145 prostate
EKVX NSCLC = tested on: EKVX NSCLC
HCC-2998 colon = tested on: HCC-2998 colon
HCT-116 colon = tested on: HCT-116 colon
HCT-15 colon = tested on: HCT-15 colon
HL-60(TB) leukemia = tested on: HL-60(TB) leukemia
HOP-62 NSCLC = tested on: HOP-62 NSCLC
HOP-92 NSCLC = tested on: HOP-92 NSCLC
HS 578T breast = tested on: HS 578T breast
HT29 colon = tested on: HT29 colon
IGROV1 ovarian = tested on: IGROV1 ovarian
K-562 leukemia = tested on: K-562 leukemia
LOX IMVI melanoma = tested on: LOX IMVI melanoma
M14 melanoma = tested on: M14 melanoma
MALME-3M melanoma = tested on: MALME-3M melanoma
MCF7 breast = tested on: MCF7 breast
MDA-MB-231 breast = tested on: MDA-MB-231 breast
MDA-MB-435 = tested on: MDA-MB-435
MDA-N = tested on: MDA-N
NCI-H226 lung = tested on: NCI-H226 lung
NCI-H23 lung = tested on: NCI-H23 lung
NCI-H460 lung = tested on: NCI-H460 lung
NCI-H522 lung = tested on: NCI-H522 lung
NCI/ADR-RES ovarian = tested on: NCI/ADR-RES ovarian
OVCAR-3 ovarian = tested on: OVCAR-3 ovarian
OVCAR-4 ovarian = tested on: OVCAR-4 ovarian
OVCAR-5 ovarian = tested on: OVCAR-5 ovarian
OVCAR-8 ovarian = tested on: OVCAR-8 ovarian
PC-3 prostate = tested on: PC-3 prostate
RXF 393 renal = tested on: RXF 393 renal
SF-268 CNS = tested on: SF-268 CNS
SF-295 CNS = tested on: SF-295 CNS
SF-539 CNS = tested on: SF-539 CNS
SK-MEL-2 melanoma = tested on: SK-MEL-2 melanoma
SK-MEL-28 melanoma = tested on: SK-MEL-28 melanoma
SK-MEL-5 melanoma = tested on: SK-MEL-5 melanoma
SK-OV-3 ovarian = tested on: SK-OV-3 ovarian
SN12C renal = tested on: SN12C renal
SNB-19 CNS = tested on: SNB-19 CNS
SNB-75 CNS = tested on: SNB-75 CNS
SW-620 colon = tested on: SW-620 colon
TK-10 renal = tested on: TK-10 renal
U251 CNS = tested on: U251 CNS
UACC-257 melanoma = tested on: UACC-257 melanoma
UACC-62 melanoma = tested on: UACC-62 melanoma
UO-31 renal = tested on: UO-31 renal
KM12 colon = tested on: KM12 colon
MOLT-4 leukemia = tested on: MOLT-4 leukemia
SR leukemia = tested on: SR leukemia
T-47D breast = tested on: T-47D breast

Measured: TGI

Cc1c2c(n3c(nc4ccccc43)c1C#N)N(c1ccc(Cl)cc1)CC2
not listed: KM12 colon | MOLT-4 leukemia | SR leukemia | T-47D breast
> 100 µM: all other assays above

N#Cc1c(-c2ccco2)c2c(n(C3OC(CO)C(O)C(O)C3O)c1=S)CCCC2 (stereo unspecified)
0.0981 µM: SNB-75 CNS
not listed: BT-549 breast | K-562 leukemia | SNB-19 CNS | SW-620 colon | U251 CNS | UO-31 renal
> 100 µM: all other assays above
